Assay results reported in US11485735B2, “Selective CDK4/6 inhibitor and preparation thereof” (Wuxi Shuangliang Biotechnology Co., Ltd., priority 2019, dated 2022).
Entries after “also recorded” stand apart in the source; their conditions may differ.

Tests used:
CDK6/CyclinD3 = molecular target: T1, CDK6/CyclinD3 (Homo sapiens, UniProt Q00534); experiment: In-vitro kinase inhibitory activity, CDK6/CyclinD3 (Caliper EZ Reader II mobility shift); assay type: biochemical; conditions: CDK6/CyclinD3 20 nM, ATP 2 mM, Peptide 1 μM, 27° C., 120 min; read-out: IC50 (half maximal inhibitory concentration, nM) CDK6
T1 construct: purchased Wuxi Biortus Biosciences Co. Ltd
How it was run: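 Compound was preincubated 10 min with CDK6/CyclinD3, then peptide substrate plus ATP was added and the reaction ran 120 min at 27° C. before EDTA stop. Substrate and phosphorylated product were separated by microfluidic mobility shift, at least two replicates. IC50 from non-linear regression of dose-response curves.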

[1] = test system: human breast cancer MCF-7 cells; experiment: Growth inhibition of tumor cells cultured in vitro, CellTiter-Glo, MCF-7; assay type: cell-based; conditions: for IC50: MCF-7, 72 h, CellTiter-Glo; for inhibitory effect on human breast cancer MCF-7 cells (in words): summary of the table
How it was run: (§1)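 Cells were seeded at 6000/well, COLO205 in RPMI-1640 with 10% FBS and MCF-7 in MEM with 10% FBS plus 0.01 mg/mL insulin, and grown 24 h before dosing. Compound dilutions in medium (10 to 0.0015 μM/L before addition, DMSO <0.1%) were tested in triplicate for 72 h at 37° C. IC50 was derived from CellTiter-Glo luminescence.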

[2] = test system: human colon cancer COLO205 cells; experiment: Growth inhibition of tumor cells cultured in vitro, CellTiter-Glo, COLO205; assay type: cell-based; conditions: for IC50: COLO205, 72 h, CellTiter-Glo; for inhibitory effect on human colon cancer COLO205 cells (in words): summary of the table
How it was run: as §1

CDK9 = CDK9 (Homo sapiens, UniProt P50750); experiment: In-vitro kinase inhibitory activity, CDK9 (selectivity); assay type: biochemical; conditions: read-out: IC50 (half maximal inhibitory concentration, nM) CDK9
CDK2 = CDK2 (Homo sapiens, UniProt P24941); experiment: In-vitro kinase inhibitory activity, CDK2 (selectivity); assay type: biochemical; conditions: read-out: IC50 (half maximal inhibitory concentration, nM) CDK2
CDK4/CyclinD3 = molecular target: T2, CDK4/CyclinD3 (Homo sapiens, UniProt P11802); experiment: In-vitro kinase inhibitory activity, CDK4/CyclinD3 (Caliper EZ Reader II mobility shift); assay type: biochemical; conditions: CDK4/CyclinD3 20 nM, ATP 2 mM, Peptide 1 μM, 27° C., 180 min; read-out: IC50 (half maximal inhibitory concentration, nM) CDK4
T2 construct: purchased Wuxi Biortus Biosciences Co. Ltd
How it was run: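 Compound was preincubated 10 min with CDK4/CyclinD3 in Tris pH 8.0 with 5 mM MgCl2, then peptide substrate and ATP were added for 180 min at 27 °C, and the reaction was stopped with EDTA. Substrate and product were separated by mobility shift. IC50 comes from non-linear dose-response fits, with at least two replicates.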

CRBN = molecular target: T3, CRBN (Homo sapiens, UniProt Q96SW2); experiment: In-vitro inhibition assay of CRBN activity (fluorescence polarization, Cy5-Thalidomide); assay type: binding; conditions: Cy5-Thalidomide 10 nM, CRBN 180 nM, 27° C., 60 min
T3 construct: purchased Wuxi Biortus Biosciences Co. Ltd
Method: The final volume for assay was 20 μL, and the reaction temperature was 27° C. CRBN was produced by Wuxi Biortus Biosciences Co. Ltd. The concentration of the kinase was determined by the optimization experiment, and the kinase was diluted with an assay buffer (50 mM Tris, pH 7.5, 100 mM NaCl, and 0.01% Pluronic acid) to obtain a corresponding kinase solution (2× concentration). The compound was dissolved in dimethyl sulfoxide (DMSO) to reach a concentration of 10 mM. […] 5 μL of the test compound solution was mixed with 5 μL of the substrate solution, and 10 μL of the kinase solution was added to the mixture. The mixture was incubated at 27° C. for 60 min. Each assay was conducted in at least two replicates. […].
The final concentrations of the reagents in the assay were as follows. […] The data of fluorescence polarization assay were read on TECAN infinite M1000. Data were calculated by using GraphPad Prism version 6.0, and IC50 values were obtained by adjusting the non-linear regression models of the dose response curves.

T2 sequence (P11802 whole entry, species assumed): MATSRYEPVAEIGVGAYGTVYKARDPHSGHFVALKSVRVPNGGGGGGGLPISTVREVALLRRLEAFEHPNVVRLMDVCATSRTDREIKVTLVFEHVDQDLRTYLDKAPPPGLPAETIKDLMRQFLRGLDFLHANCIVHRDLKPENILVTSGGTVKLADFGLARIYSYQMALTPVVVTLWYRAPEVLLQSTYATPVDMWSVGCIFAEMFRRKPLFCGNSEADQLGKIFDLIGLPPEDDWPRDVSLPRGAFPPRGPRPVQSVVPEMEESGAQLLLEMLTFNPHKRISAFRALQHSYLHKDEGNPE
T2 sequence (P30281 whole entry partner, species assumed): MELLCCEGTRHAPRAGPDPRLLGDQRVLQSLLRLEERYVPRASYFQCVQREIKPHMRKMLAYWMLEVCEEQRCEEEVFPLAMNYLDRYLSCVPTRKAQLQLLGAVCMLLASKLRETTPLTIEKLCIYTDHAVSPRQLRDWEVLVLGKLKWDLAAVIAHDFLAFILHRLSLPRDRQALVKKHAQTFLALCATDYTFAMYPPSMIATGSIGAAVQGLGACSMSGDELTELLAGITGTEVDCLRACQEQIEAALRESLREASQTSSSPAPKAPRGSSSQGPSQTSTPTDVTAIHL
T3 sequence (Q96SW2 whole entry, species assumed): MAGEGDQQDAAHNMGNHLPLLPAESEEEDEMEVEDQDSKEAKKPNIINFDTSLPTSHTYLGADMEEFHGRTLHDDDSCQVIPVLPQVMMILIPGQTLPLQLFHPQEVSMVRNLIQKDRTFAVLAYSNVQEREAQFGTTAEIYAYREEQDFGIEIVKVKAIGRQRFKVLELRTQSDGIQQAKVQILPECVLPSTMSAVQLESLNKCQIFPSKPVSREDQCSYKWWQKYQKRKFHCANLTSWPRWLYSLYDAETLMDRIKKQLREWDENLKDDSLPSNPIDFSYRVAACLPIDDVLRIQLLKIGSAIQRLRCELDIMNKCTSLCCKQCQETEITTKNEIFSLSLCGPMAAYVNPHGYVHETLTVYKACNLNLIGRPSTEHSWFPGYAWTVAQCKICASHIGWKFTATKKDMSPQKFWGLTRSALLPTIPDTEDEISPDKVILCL
Sequence of CDK9 (P50750 whole entry, species assumed): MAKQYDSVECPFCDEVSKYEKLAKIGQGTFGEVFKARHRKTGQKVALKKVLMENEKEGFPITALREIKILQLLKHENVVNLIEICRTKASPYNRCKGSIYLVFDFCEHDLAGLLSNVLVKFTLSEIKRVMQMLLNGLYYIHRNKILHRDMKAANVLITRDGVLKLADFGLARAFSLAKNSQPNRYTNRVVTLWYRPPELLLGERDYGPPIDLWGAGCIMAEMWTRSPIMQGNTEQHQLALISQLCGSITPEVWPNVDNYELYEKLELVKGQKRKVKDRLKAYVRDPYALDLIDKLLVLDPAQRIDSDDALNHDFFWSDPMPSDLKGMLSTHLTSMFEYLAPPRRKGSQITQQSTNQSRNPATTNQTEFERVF
Sequence of CDK9 (O60563 whole entry partner, species assumed): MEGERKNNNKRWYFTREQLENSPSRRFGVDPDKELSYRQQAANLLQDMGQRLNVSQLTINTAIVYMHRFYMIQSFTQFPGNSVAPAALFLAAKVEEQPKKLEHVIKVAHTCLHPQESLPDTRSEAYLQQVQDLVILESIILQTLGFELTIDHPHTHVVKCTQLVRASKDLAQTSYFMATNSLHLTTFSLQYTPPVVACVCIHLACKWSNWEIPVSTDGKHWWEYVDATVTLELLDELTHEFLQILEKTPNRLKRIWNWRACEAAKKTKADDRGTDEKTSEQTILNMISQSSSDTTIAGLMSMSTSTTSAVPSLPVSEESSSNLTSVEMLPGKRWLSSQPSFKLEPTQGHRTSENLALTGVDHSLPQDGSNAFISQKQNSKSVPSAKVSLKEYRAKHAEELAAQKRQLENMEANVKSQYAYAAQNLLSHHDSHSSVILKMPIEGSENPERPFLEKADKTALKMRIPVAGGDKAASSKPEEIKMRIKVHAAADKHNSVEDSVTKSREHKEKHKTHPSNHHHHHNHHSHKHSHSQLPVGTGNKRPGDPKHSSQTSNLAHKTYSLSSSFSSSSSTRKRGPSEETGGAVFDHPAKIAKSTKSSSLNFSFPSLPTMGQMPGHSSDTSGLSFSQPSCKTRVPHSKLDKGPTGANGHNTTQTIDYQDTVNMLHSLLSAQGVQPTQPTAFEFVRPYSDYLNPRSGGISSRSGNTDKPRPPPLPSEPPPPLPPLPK
T1 sequence (Q00534 whole entry, species assumed): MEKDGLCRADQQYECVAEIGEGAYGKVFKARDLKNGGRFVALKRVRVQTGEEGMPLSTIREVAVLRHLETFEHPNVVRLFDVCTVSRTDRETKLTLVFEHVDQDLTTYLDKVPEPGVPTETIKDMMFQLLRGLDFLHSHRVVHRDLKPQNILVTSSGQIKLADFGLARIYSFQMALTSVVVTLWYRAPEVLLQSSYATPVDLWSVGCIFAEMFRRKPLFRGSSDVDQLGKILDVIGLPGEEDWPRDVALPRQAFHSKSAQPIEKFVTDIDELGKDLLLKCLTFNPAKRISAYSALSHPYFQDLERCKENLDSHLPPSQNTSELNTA
T1 sequence (P30281 whole entry partner, species assumed): as the sequence (P30281 whole entry partner, species assumed) above

Structure (SMILES) | IC50 (CDK6/CyclinD3) | IC50 ([1]; Homo sapiens, MCF7, 72 h) | IC50 ([2]; Homo sapiens, COLO 205, 72 h) | inhibitory effect on human colon cancer COLO205 cells (in words) [2] | IC50 (CDK9) | IC50 (CDK2) | IC50 (CDK4/CyclinD3) | IC50 (CRBN) | IC50 [1] | IC50 ([2]; dihydrochloride) | inhibitory effect on human colon cancer COLO205 cells (in words) ([2]; dihydrochloride) | inhibitory effect on human breast cancer MCF-7 cells (in words) [1]
CC(=O)c1c(C)c2cnc(Nc3ccc(N4CCN(CCN5CCC(C(=O)N6CCN(c7ccc8c(c7)CN([C@H]7CCC(=O)NC7=O)C8=O)CC6)CC5)CC4)cn3)nc2n(C2CCCC2)c1=O [Compound 8, (S)-3-(5-(4-(1-(2-(4-(6-((6-acetyl-8-cyclopentyl-5-methyl-7-oxo-7,8-dihydropyrido[2,3-d]pyrimidin-2-yl)amino)pyridin-3-yl)piperazin-1-yl)ethyl)piperidin-4-carbonyl)piperazin-1-yl)-1-oxoisoindolin-2-yl)piperidine-2,6-dione] | 16.1 nM | 821 nM | 96.2 nM | relatively good inhibitory effects | 3810 nM | 9000 nM | 19.9 nM | 1210 nM |  |  |  | 
CC(=O)c1c(C)c2cnc(Nc3ccc(N4CCN(CCN5CCN(c6ccc7c(c6)CN(C6CCC(=O)NC6=O)C7=O)CC5)CC4)cn3)nc2n(C2CCCC2)c1=O.Cl.Cl (single isomer, unassigned) [Compound 2, 3-(5-(4-(2-(4-(6-((6-acetyl-8-cyclopentyl-5-methyl-7-oxo-7,8-dihydropyrido[2,3-d]pyrimidin-2-yl)amino)pyridin-3-yl)piperazin-1-yl)ethyl)piperazin-1-yl)-1-oxoisoindolin-2-yl)piperidine-2,6-dione dihydrochloride] | 22 nM |  |  |  | 8710 nM | > 10000 nM | 36.8 nM | 3000 nM | > 10000 nM | 25.5 nM | relatively good inhibitory effects; also recorded: the best inhibitory effect | 
CC(=O)c1c(C)c2cnc(Nc3ccc(N4CCN(CCN5CCC(CN6CCN(c7ccc8c(c7)CN(C7CCC(=O)NC7=O)C8=O)CC6)CC5)CC4)cn3)nc2n(C2CCCC2)c1=O.Cl.Cl.Cl (single isomer, unassigned) [Compound 4, 3-(5-(4-((1-(2-(4-(6-((6-acetyl-8-cyclopentyl-5-methyl-7-oxo-7,8-dihydropyrido[2,3-d]pyrimidin-2-yl)amino)pyridin-3-yl)piperazin-1-yl)ethyl)piperidin-4-yl)methyl)piperazin-1-yl)-1-oxoisoindolin-2-yl)piperidine-2,6-dione trihydrochloride] | 9.7 nM | 50.5 nM | 69.2 nM | relatively good inhibitory effects | 8640 nM | > 10000 nM | 10.7 nM | 2080 nM |  |  |  | relatively good inhibitory effects
CC(=O)c1c(C)c2cnc(Nc3ccc(N4CCN(CCCCN5CCC(CN6CCN(c7ccc8c(c7)CN(C7CCC(=O)NC7=O)C8=O)CC6)CC5)CC4)cn3)nc2n(C2CCCC2)c1=O (stereo not drawn) [Compound 5, 3-(5-(4-((1-(4-(4-(6-((6-acetyl-8-cyclopentyl-5-methyl-7-oxo-7,8-dihydropyrido[2,3-d]pyrimidin-2-yl)amino)pyridin-3-yl)piperazin-1-yl)butyl)piperidin-4-yl)methyl)piperazin-1-yl)-1-oxoisoindolin-2-yl)piperidine-2,6-dione] | 6.6 nM | 30.4 nM | 291 nM |  | 5470 nM | 9910 nM | 10 nM | 5280 nM |  |  |  | relatively good inhibitory effects
